According to patent publication US6838416B2, “Herbicidal 5-benzyloxymethyl-1,2-isoxazoline derivatives” (Korea Research Institute of Chemical Technology, priority 2000, dated 2005):

Legend:
[1] = system: MOOVA (seed); assay: Assay for herbicidal activity, paddy pots: MOOVA; type: in vivo, Monochoria vaginalis PRESL; conditions: three weeks after application, 0 untreated control, 100 complete kill
From the text: (§1) To evaluate herbicidal activity against the paddy weeds in the paddy rice (ORYSA: Oryza sativa L.), the herbicidal activity of the compounds of the invention was compared to that of the compound No.109 (compound A) disclosed in U.S. Pat. […] The paddy weeds tested were ECHOR (Echinochloa crus-galli var. oryzicola), SCPJU (Scirpus juncoides ROXB), MOOVA (Monochoria vaginalis […] (Cyperus serotinus ROTTB), and SAGPY (Sagittaria pygmaea MTQ). The vessels employed were plastic pots having an area of 140 cm^2 and filled with a sandy loam soil containing 1.2% organic matter (pH 6).

[2] = system: ECHOR (seed); assay: Assay for herbicidal activity, paddy pots: ECHOR; type: in vivo, Echinochloa crus-galli var. oryzicola; conditions: for ECHOR (seed) herbicidal activity, visual percentage grading: three weeks after application, 0 untreated control, 100 complete kill
From the text: as §1

[3] = system: CYPSE (tuber); assay: Assay for herbicidal activity, paddy pots: CYPSE; type: in vivo, Cyperus serotinus ROTTB; conditions: three weeks after application, 0 untreated control, 100 complete kill
From the text: as §1

[4] = system: SAGPY (tuber); assay: Assay for herbicidal activity, paddy pots: SAGPY; type: in vivo, Sagittaria pygmaea MTQ; conditions: three weeks after application, 0 untreated control, 100 complete kill
From the text: as §1

[5] = system: SCPJU (seed); assay: Assay for herbicidal activity, paddy pots: SCPJU; type: in vivo, Scirpus juncoides ROXB; conditions: three weeks after application, 0 untreated control, 100 complete kill
From the text: as §1

SMILES	MOOVA (seed) herbicidal activity, visual percentage grading ([1]; 0.016 kg/ha) [%]	MOOVA (seed) herbicidal activity, visual percentage grading ([1]; 0.063 kg/ha) [%]	MOOVA (seed) herbicidal activity, visual percentage grading ([1]; 0.250 kg/ha) [%]	MOOVA (seed) herbicidal activity, visual percentage grading ([1]; 1.000 kg/ha) [%]	MOOVA (seed) herbicidal activity, visual percentage grading ([1]; 4.000 kg/ha) [%]	ECHOR (seed) herbicidal activity, visual percentage grading ([2]; 0.016 kg/ha) [%]	ECHOR (seed) herbicidal activity, visual percentage grading ([2]; 0.063 kg/ha) [%]	ECHOR (seed) herbicidal activity, visual percentage grading ([2]; 0.250 kg/ha) [%]	ECHOR (seed) herbicidal activity, visual percentage grading ([2]; 1.000 kg/ha) [%]	ECHOR (seed) herbicidal activity, visual percentage grading ([2]; 4.000 kg/ha) [%]	CYPSE (tuber) herbicidal activity, visual percentage grading ([3]; 0.016 kg/ha) [%]	CYPSE (tuber) herbicidal activity, visual percentage grading ([3]; 0.063 kg/ha) [%]	CYPSE (tuber) herbicidal activity, visual percentage grading ([3]; 0.250 kg/ha) [%]	CYPSE (tuber) herbicidal activity, visual percentage grading ([3]; 1.000 kg/ha) [%]	CYPSE (tuber) herbicidal activity, visual percentage grading ([3]; 4.000 kg/ha) [%]	SAGPY (tuber) herbicidal activity, visual percentage grading ([4]; 0.016 kg/ha) [%]	SAGPY (tuber) herbicidal activity, visual percentage grading ([4]; 0.063 kg/ha) [%]	SAGPY (tuber) herbicidal activity, visual percentage grading ([4]; 0.250 kg/ha) [%]	SAGPY (tuber) herbicidal activity, visual percentage grading ([4]; 1.000 kg/ha) [%]	SAGPY (tuber) herbicidal activity, visual percentage grading ([4]; 4.000 kg/ha) [%]	also measured
Cc1cc(C)c(C2=NOC(C)(COCc3c(F)cccc3F)C2)s1 (stereo not shown) [EXAMPLE 15, 5-(2,6-difluorobenzyl)oxymethyl-5-methyl-3-(2,4-dimethylthiophene-5-yl)-1,2-isoxazoline]	90	100	100	100	100	40	100	100	100	100	0	0	70	100	100	0	0	20	40	70	SCPJU (seed) herbicidal activity, visual percentage grading ([5]; 0.016 kg/ha): 20%; SCPJU (seed) herbicidal activity, visual percentage grading ([5]; 0.063 kg/ha): 50%; SCPJU (seed) herbicidal activity, visual percentage grading ([5]; 0.250 kg/ha): 100%; SCPJU (seed) herbicidal activity, visual percentage grading ([5]; 1.000 kg/ha): 100%; SCPJU (seed) herbicidal activity, visual percentage grading ([5]; 4.000 kg/ha): 100%
Cc1ccsc1C1=NOC(C)(COCc2ccccc2)C1 (stereo not shown) [EXAMPLE 5, 5-benzyloxymethyl-5-methyl-3-(4-methylthiophene-5-yl)-1,2-isoxazoline]	0	10	80	90	100	0	30	100	100	100	0	0	30	100	100	0	0	20	50	70	SCPJU (seed) herbicidal activity, visual percentage grading ([5]; 0.016 kg/ha): 0%; SCPJU (seed) herbicidal activity, visual percentage grading ([5]; 0.063 kg/ha): 10%; SCPJU (seed) herbicidal activity, visual percentage grading ([5]; 0.250 kg/ha): 30%; SCPJU (seed) herbicidal activity, visual percentage grading ([5]; 1.000 kg/ha): 60%; SCPJU (seed) herbicidal activity, visual percentage grading ([5]; 4.000 kg/ha): 100%
Cc1cc(C)c(C2=NOC(C)(COCc3ccccc3F)C2)s1 (stereo not shown) [EXAMPLE 13, 5-(2-fluorobenzyl)oxymethyl-5-methyl-3-(2,4-dimethylthiophene-5-yl)-1,2-isoxazoline]	50	70	80	90	100	50	70	100	100	100	0	0	90	100	100	0	0	0	0	30	SCPJU (seed) herbicidal activity, visual percentage grading ([5]; 0.016 kg/ha): 30%; SCPJU (seed) herbicidal activity, visual percentage grading ([5]; 0.063 kg/ha): 30%; SCPJU (seed) herbicidal activity, visual percentage grading ([5]; 0.250 kg/ha): 70%; SCPJU (seed) herbicidal activity, visual percentage grading ([5]; 1.000 kg/ha): 90%; SCPJU (seed) herbicidal activity, visual percentage grading ([5]; 4.000 kg/ha): 100%
CC1(COCc2c(F)cccc2F)CC(c2ccc([N+](=O)[O-])s2)=NO1 (stereo not shown) [EXAMPLE 23, 5-(2,6-difluorobenzyl)oxymethyl-5-methyl-3-(2-nitrothiophene-5-yl)-1,2-isoxazoline]	0	50	70	100	100	0	30	100	100	100	0	0	50	80	100	0	0	0	0	0	SCPJU (seed) herbicidal activity, visual percentage grading ([5]; 0.016 kg/ha): 0%; SCPJU (seed) herbicidal activity, visual percentage grading ([5]; 0.063 kg/ha): 0%; SCPJU (seed) herbicidal activity, visual percentage grading ([5]; 0.250 kg/ha): 0%; SCPJU (seed) herbicidal activity, visual percentage grading ([5]; 1.000 kg/ha): 0%; SCPJU (seed) herbicidal activity, visual percentage grading ([5]; 4.000 kg/ha): 100%
CC1(COCc2c(F)cccc2F)CC(c2sccc2Br)=NO1 (stereo not shown) [EXAMPLE 19, 5-(2,6-difluorobenzyl)oxymethyl-5-methyl-3-(4-bromothiophene-5-yl)-1,2-isoxazoline]	20	95	100	100	100	100	100	100	100	100	30	90	90	100	100	0	0	0	20	30	herbicidal activity on ECHOR, in words ([2]; low dose of 0.016 Kg/ha): completely controls the growth of ECHOR; SCPJU (seed) herbicidal activity, visual percentage grading ([5]; 0.016 kg/ha): 0%; SCPJU (seed) herbicidal activity, visual percentage grading ([5]; 0.063 kg/ha): 100%; SCPJU (seed) herbicidal activity, visual percentage grading ([5]; 0.250 kg/ha): 100%; SCPJU (seed) herbicidal activity, visual percentage grading ([5]; 1.000 kg/ha): 100%; SCPJU (seed) herbicidal activity, visual percentage grading ([5]; 4.000 kg/ha): 100%
COc1ccsc1C1=NOC(C)(COCc2c(F)cccc2F)C1 (stereo not shown) [EXAMPLE 21, 5-(2,6-difluorobenzyl)oxymethyl-5-methyl-3-(4-methoxythiophene-5-yl)-1,2-isoxazoline]	0	100	100	100	100	0	100	100	100	100	0	40	60	80	100	0	0	0	0	0	SCPJU (seed) herbicidal activity, visual percentage grading ([5]; 0.016 kg/ha): 0%; SCPJU (seed) herbicidal activity, visual percentage grading ([5]; 0.063 kg/ha): 100%; SCPJU (seed) herbicidal activity, visual percentage grading ([5]; 0.250 kg/ha): 100%; SCPJU (seed) herbicidal activity, visual percentage grading ([5]; 1.000 kg/ha): 100%; SCPJU (seed) herbicidal activity, visual percentage grading ([5]; 4.000 kg/ha): 100%
